Laboratory results: patent publication US20190008864A1, “PHARMACEUTICAL COMPOSITION CONTAINING GPR119 LIGAND AS EFFECTIVE INGREDIENT FOR PREVENTING OR TREATING NON-ALCOHOLIC STEATOHEPATITIS” (PHARMEDIX.CO., LTD., priority 2014, published 2019)

System: FAS
Experiment: FAS expression under high-glucose/high-insulin exposure, HepG2 (western blot)
Type: cell-based, human
Description: A 6-well plate was inoculated with HepG2 (ATCC, US), as a human hepatocyte line, and cultured until confluence in a DMEM medium containing 1% penicillin-streptomycin (Hyclone, US) and 10% fetal bovine serum (Hyclone, US) in a 5% CO2 incubator at 37° C. The medium containing 10% fetal bovine serum of the hepatocyte line grown to confluence was replaced by a medium not containing FBS. The cell line was additionally cultured for 18 hours and used as a sample for an experiment.
Sodium dodecyl sulfate-polyacrylamide gel electrophoresis (SDS-PAGE) was carried out by means of a gel electrophoresis device (Mighty Small SE 250, Hoefer Scientific Instruments, San Francisco) according to a method by Laemmli (UK, Nature 227, 680-685, 1970). […] Whether total protein contents in samples are the same is determined using anti-β-actin and anti-LaminA/C antibodies. Changes in protein expression amounts were determined by measuring the intensities of chemiluminescence signals on the blot by means of densitometry. […] Each lane was calculated using AlphaEase™ version 5.5 software and background intensity was removed from the calculated values. […]

For `CCc1cnc(N2CCC(c3nc(COc4ccc(-n5cnnn5)cc4)cs3)CC2)nc1` [MBX2982, 4-((4-(1H-tetrazol-1-yl)phenoxy)methyl)-2-(1-(5-ethylpyrimidin-2-yl)piperidin-4-yl)thiazole], the “FAS expression increased by high-glucose/high-insulin” value was “inhibited”.
